The nature of this series: toxicity in vivo (lethality). As for the experimental part:
The formula I compounds may be administered in any convenient dosage form, with the preferred formulations adapted for oral (PO) or intravenous (IV) administration. Since the water solubility of the compounds exceeds 200 mg/mL, formulations are not anticipated to be difficult to make.

The results in this text go back to patent US7282602B2, “Medicinal disulfide salts” (BioNumerik Pharmaceuticals, Inc., priority 2004, dated 2007).

`O=S(=O)([O-])CCSSCCS(=O)(=O)[O-].[Na+].[Na+]` [Dimesna, Disodium 2,2′-dithiobis ethane sulfonate]: the “toxicity compared with common table salt” value is “less toxic than common table salt”. The “amount not causing a single death in vivo” value (IV) was “exceeding 5000 mg/kg”.
